The source of these data is patent US6544773B1, “Microbial process for degradation of PCBS in clophen A-50 using a novel marine microorganism, Pseudomonas CH07” (priority 2001, dated 2003).

Data set [1] has as its system Pseudomonas CH07. The data set is described as follows: Degradation of PCB congeners of Clophen A-50 by Pseudomonas CH07 in seawater nutrient broth, GC-ECD analysis. The following applies: for Degradation Of PCBs: 40 hrs incubation with Pseudomonas CH07, versus control; for Conc. of PCBs in Test sol. (incubation) 40 hrs.: incubation with Pseudomonas CH07 for 40 hrs, Clophen A-50 100 ppm in seawater nutrient broth. Here is the method:
A defined seawater nutrient broth medium (code no. 088 from Himedia, Bombay) containing beef extract 3 g L^−1, peptic digest of animal tissue 5 g L^−1 was used. One liter of medium contained 500 ml seawater and 500 ml distilled water and the final pH was adjusted to 7 using 0.1 N NaOH. After autoclaving, the required amount of stock solution (10,000 ppm) of Clophen A-50 was added to the medium in sterile condition to achieve a final concentration of 100 ppm. Immediately after adding the stock PCBs solution, the hexane part of it was evaporated out by gently swirling the flask in sterile condition and sterile glycerol was added to the medium in a 1:1 ratio of stock solution:glycerol. 40 μl of 24 hold culture of Pseudomonas CH07 growths was added in two replicates of 20 ml of test (seawater nutrient broth+Clophen A-50) medium to seawater nutrient broth (without any addition of Clophen A-50). Controls in duplicate were also maintained without the addition of the organism at room temperature (ca. 28°±2° C.). Control and test cultures were maintained at room temperature for two days and at various predecided intervals of time, the samples was taken out aseptically and prepared for GC analysis. The details of the sample preparation is described below.
The PCBs were analyzed following the method described by Boon et al. The method was standardized in our laboratory using the PCBs standards obtained from Promochem, Germany as well as other analytical grade chemicals from E. Merck. The purity of the solvents was checked by Gas chromatography for each of the bottles. The different adsorbents, alumina, silica, were purified by soxhlet extraction with di-chloro-methane (HPLC grade) for about eight hours. The anhydrous Na2SO4 and the glass wool were also purified by Soxhlet extraction with HPLC grade di-chloro methane. The different steps of the analytical methods are illustrated below:
i. Aliquot of 1 ml sample was treated with 1 ml n-hexane (HPLC grade) thrice and thoroughly mixed by a vortex mixture for five minutes each time. The upper part of the solvent layer (solvent extract) was separated with the help of micropipette and transferred to a sterilized glass tube.
ii. Concentrate the solvent extract to 1 ml by evaporation with Snyder column evaporator on a water bath at 85° C.
iii. Purify of the solvent extract by alumina clean up using micro-column technique.
iv. Concentrate the solvent extract to 1 ml by evaporation with Snyder column evaporator on a water bath at 85° C.
v. Isolate PCBs from polar chlorinated compounds by eluting through micro-column of silica.
vi. Concentrate the PCBs fraction to 1 ml by evaporation with Snyder column evaporator on a water bath at 85° C.
vii. Analyze the aliquot by GC-ECD with reference to standard PCBs (individual congeners).
The samples were analyzed by gas chromatography (Varian GC-3380) coupled with an electron capture detector and an autosampler 8200. Capillary column VA-5 (30 m×0.25 mm) was employed with electron capture detector […] for peak detection. Argon with 5% methane was the carrier gas. A temperature program was used (table. 3). […] The experimental condition of the instrument is illustrated in the table-4. The analysis of PCBs was calibrated using the standards for individual congeners of PCBs obtained from Promochem, Germany. Using different dilutions of the stock solution of the standards carried out the calibration of each of the individual congeners. The linearity of the calibration curve was determined with a range of dilution of the mix-standards.

Data set [2] has as its system Pseudomonas CH07. The data set is described as follows: Taxonomical characteristics: growth of Pseudomonas CH07 on antibiotics. It counts as cell-based. Details: key: −: negative response (no growth); +: positive response (slight or moderate growth); ++: very good response (good growth). The following applies: Table 1, taxonomical tests.

With `Clc1ccc(-c2cc(Cl)c(Cl)cc2Cl)cc1Cl` [CB-118, 2,3′,4,4′,5-Pentachloro], the “Degradation Of PCBs” value with Pseudomonas CH07 [1] amounted to 40.72%.

Take `CN(C)[C@@H]1C(O)=C(C(N)=O)C(=O)[C@@]2(O)C(O)=C3C(=O)c4c(O)cccc4[C@@](C)(O)[C@H]3C[C@@H]12` [Tetracycline]: the “Growth on (Response)” value in the data set with Pseudomonas CH07 [2] is recorded as “++”.

Take `Clc1cc(Cl)c(-c2cccc(Cl)c2Cl)cc1Cl` [CB-97, 2,2′,3′,4,5-Pentachloro]: the “Degradation Of PCBs” value in the data set with Pseudomonas CH07 [1] came to 19.69%. Turning to `Clc1ccc(-c2c(Cl)c(Cl)c(Cl)c(Cl)c2Cl)c(Cl)c1` [CB-181, 2,2′,3,4,4′,5,6-Heptachloro], the “Degradation Of PCBs” value with Pseudomonas CH07 [1] stood at 100%.

For `Clc1ccc(-c2ccc(Cl)c(Cl)c2Cl)cc1Cl` [CB-105, 2,3,3′,4,4′-Pentachloro], the “Degradation Of PCBs” value in the data set with Pseudomonas CH07 [1] is 46.69%. Take Neomycin: the “Growth on (Response)” value in the data set with Pseudomonas CH07 [2] is on record as “++”. As for `Clc1cc(Cl)c(-c2ccc(Cl)c(Cl)c2Cl)cc1Cl` [CB-138, 2,2′,3,4,4′,5′-Hexachloro], in the data set with Pseudomonas CH07 [1], the “Degradation Of PCBs” value stood at 55.97%. On to `Clc1c(Cl)c(Cl)c(-c2ccccc2)c(Cl)c1Cl` [CB-116, 2,3,4,5,6-Pentachloro], for which, in the data set with Pseudomonas CH07 [1], the “Degradation Of PCBs” value was found to be 20.04% and the “Conc. of PCBs in Test sol. (incubation) 40 hrs.” value (“Conc. of PCBs” below) was 8.06 ng/mL. As for `Clc1cc(Cl)c(-c2cc(Cl)c(Cl)c(Cl)c2Cl)cc1Cl` [CB-180, 2,2′,3,4,4′,5,5′-Heptachloro], in the data set on Pseudomonas CH07 [1], the “Degradation Of PCBs” value stood at 61.33%. `[H]/N=C(/N)N[C@H]1[C@H](O)[C@@H](O)[C@H](O[C@@H]2O[C@@H](C)[C@](O)(C=O)[C@H]2O[C@@H]2O[C@@H](CO)[C@H](O)[C@@H](O)[C@@H]2NC)[C@@H](N/C(N)=N\[H])[C@@H]1O` [Streptomycin]: the “Growth on (Response)” value in the data set on Pseudomonas CH07 [2] is given as “++”. For `NC[C@H]1O[C@H](O[C@H]2[C@H](O)[C@@H](O[C@H]3O[C@H](CO)[C@@H](O)[C@H](N)[C@H]3O)[C@H](N)C[C@@H]2N)[C@H](O)[C@@H](O)[C@@H]1O` [Kanamycin], in the data set on Pseudomonas CH07 [2], the “Growth on (Response)” value is on record as “++”.

`Clc1ccc(Cl)c(-c2cc(Cl)c(Cl)c(Cl)c2Cl)c1` [CB-141, 2,2′,3,4,5,5′-Hexachloro]: the “Degradation Of PCBs” value with Pseudomonas CH07 [1] came to 55.38%. On the same count and under the same terms, the figure for `Clc1ccc(Cl)c(-c2cc(Cl)c(Cl)cc2Cl)c1` [CB-101, 2,2′,4,5,5′-Pentachloro] is 20.19%. Turning to `CN(C)[C@@H]1C(O)=C(C(N)=O)C(=O)[C@@]2(O)C(O)=C3C(=O)c4c(O)ccc(Cl)c4[C@@H](O)[C@H]3C[C@@H]12` [Demechlocyclin], in the data set with Pseudomonas CH07 [2], the “Growth on (Response)” value is recorded as “++”.

Consider `Clc1ccc(-c2ccc(Cl)c(Cl)c2Cl)c(Cl)c1Cl` [CB-128, 2,2′,3,3′,4,4′-Hexachloro], for which the “Degradation Of PCBs” value in the data set on Pseudomonas CH07 [1] came out at 64.33%. `Clc1ccc(Cl)c(-c2c(Cl)c(Cl)cc(Cl)c2Cl)c1` [CB-151, 2,2′,3,5,5′,6-Hexachloro]: in the data set with Pseudomonas CH07 [1], the “Degradation Of PCBs” value is on record as 37.32%. `Clc1ccc(-c2cc(Cl)c(Cl)c(Cl)c2)cc1Cl` [CB-126, 3,3′,4,4′,5-Pentachloro]: in the data set on Pseudomonas CH07 [1], the “Degradation Of PCBs” value came to 100% and the “Conc. of PCBs” value was 00.00 ng/mL. Consider `Clc1cc(Cl)c(-c2ccc(Cl)c(Cl)c2)c(Cl)c1` [CB-119, 2,3′,4,4′,6-Pentachloro], for which, in the data set with Pseudomonas CH07 [1], the “Degradation Of PCBs” value turned out to be 19.66% and the “Conc. of PCBs” value came to 6.48 ng/mL. Taken in the same sequence, the figures for `Clc1ccc(-c2ccc(Cl)c(Cl)c2)cc1Cl` [CB-77, 3,3′,4,4′-tetrachlorobiphenyl] were 24.25% and 40.42 ng/mL.
